Measurements reported in patent US20170029355A1, “LABILE ESTERS OF AGROCHEMICALS FOR CONTROLLED RELEASE AND REDUCTION OF OFF-SITE MOVEMENT” (Monsanto Technology LLC, priority 2011, published 2017).

Legend:
[1] = Photolysis / cleavage of the esters to dicamba (statements of the description); format: physicochemical; settings: qualitative
Description: The efficacy of the photolabile esters can be assayed in vitro, or in greenhouse or field experiments. A useful in vitro assay for post-emergent activity involves photolysis of a dilute solution of the esters using simulated sunlight. This is conveniently achieved by photolysis of a solution of the ester in an organic solvent which is miscible with water and to which some water has been added. As described in the Examples, photolysis in acetonitrile or tetrahydrofuran containing 10% water by weight is effective. Low concentrations of the ester should be used so that the entire volume is exposed to sunlight. Since the maximum extinction coefficient of the typical esters above 220 nm is in the range of 1000-10,000 M^−1 cm^−1, a concentration of 0.1 mM is effective. Photolysis in a quartz tube exposed to simulated or actual sunlight is a typical protocol.

[2] = Solubility of the esters (statements of the description); format: physicochemical; settings: qualitative
velvetleaf [3] = assay: Greenhouse post-emergent control of velvetleaf by emulsifiable concentrates (Example 30); format: in vivo
Protocol: (§1) The efficacy of some photo-labile ester formulations from Example 28 for post-emergent control of velvetleaf was tested in the greenhouse. All formulations were tested at rates of 140, 280, 420, and 560 g dicamba equivalent per hectare rates and compared to the diglycolamine salt of dicamba (CLARITY®) at the same rates and untreated control plants. The velvetleaf plants were 10-15 cm in height at the time of spraying. Percent control was evaluated three weeks after treatment.
The methodology of Example 29 was used to evaluate the efficacy of several photo-labile esters of dicamba for post-emergent control of velvetleaf as emulsifiable concentrate formulations described in Example 28.

broadleaf weeds = assay: Control of broadleaf weeds by ester concentrates (statements of the description); format: in vivo; settings: emulsifiable and suspension concentrates; Sesbania macrocarpa, morning glory, velvetleaf, Palmer amaranth, fat hen, sicklepod
[4] = In vitro photo-release and hydrolytic release of dicamba in an aqueous medium (Example 36); format: physicochemical; settings: 0.01 mM (0.005 mM for diesters)
Protocol: This Example describes the determination of photo-lability and hydrolytic lability of dicamba esters in an aqueous medium. 1 mM solutions of the esters were prepared in acetonitrile (or […] solutions of dicamba diesters). The solutions were then diluted with deionized water to a concentration of 0.01 mM (or 0.005 mM for diesters). The solutions were then transferred to quartz tubes and amber bottles and held in a growth chamber by the procedure of Example 26. A 14-hour day was generally used at a constant temperature of 35° C. Hydrolytic activity was assessed by measuring the increase in dicamba concentration after day zero in the amber (dark) bottles. […] Photolysis manifested itself as increased conversion in the quartz tubes compared to the dark control.
This Example provides the results of an aqueous lability test following the protocol of Example 35 for several dicamba esters which convert to dicamba primarily by hydrolysis. As shown by the results in the table below, conversion of the dark controls generally equaled or exceeded conversion in the photolysis solutions.

hemp sesbania = assay: Field testing of emulsifiable concentrates, post-emergent control (Example 40); format: in vivo
Protocol: (§2) Three dicamba esters, 30a, 32a, and 36a, were formulated as emulsifiable concentrates for field testing. All surfactants are commercial materials from Stepan.
(§3) The formulations were tested in the field. Locations and timing were identical for the three esters, but differed slightly for the diglycolamine control. The esters were compared to the diglycolamine salt of dicamba (CLARITY™) for post-emergent control of three broadleaf weeds: velvetleaf, morning glory, and hemp sesbania. Rates of 280 and 560 g dicamba acid equivalent per hectare were used.

velvetleaf [5] = assay: as above; format: in vivo
Protocol: as §2, §3

morning glory = assay: as above; format: in vivo
Protocol: as §2, §3

velvetleaf [6] = assay: Greenhouse post-emergent control of velvetleaf by emulsifiable concentrates (Example 37); format: in vivo; settings: Abutilon theophrasti, post-emergence, 504 h, greenhouse, Example 37
Protocol: as §1
The methodology of Example 29 was used to evaluate the efficacy of several esters of dicamba which convert to dicamba by hydrolysis for post-emergent control of velvetleaf as emulsifiable concentrate formulations.

velvetleaf [7] = assay: Greenhouse post-emergent control of velvetleaf by emulsifiable concentrates (Example 29); format: in vivo; settings: three weeks after treatment
Protocol: as §1

[8] = In vitro dicamba photo-release from photo-labile dicamba esters, acetonitrile/10% water solvent (Example 27); format: physicochemical; settings: acetonitrile containing 10% water
Protocol: (§4) This Example describes in vitro testing of dicamba photo-release by homogeneous solutions of photo-labile dicamba esters. The esters were dissolved in tetrahydrofuran (THF). Ester concentration was 0.1 mM. 25 ml of the solution was transferred to 22 mm tubes fabricated from graded seal quartz tubing with a 19/22 tapered seal at the top, which was closed with a tapered glass plug and secured with a plastic ring clamp. The solution was entirely below the quartz-to-glass transition, ensuring that the entire volume was exposed to the full spectrum.
(§5) The sealed tubes were placed in a Growth Chamber where they were exposed to simulated sunlight for 14 hours per day at 35° C. Dicamba concentrations in the solution were measured during the course of the photolysis.
(§6) A sample of the initial solution was reserved in a glass vial away from the light source and analyzed at the conclusion of the study, providing a measurement of the amount of dicamba present without illumination of the photolysis solution (the “dark control”).
This Example is another photolysis of photo-labile dicamba esters, but using acetonitrile containing 10% water by weight as the solvent. The experimental protocol is otherwise the same as in Example 18.

[9] = In vitro dicamba photo-release from photo-labile dicamba esters, tetrahydrofuran solvent (Example 26); format: physicochemical; settings: THF, 0.1 mM ester
Protocol: as §4, §5, §6

[10] = 280 g dicamba acid equivalent per hectare
[11] = 560 g dicamba acid equivalent per hectare

COc1c(Cl)ccc(Cl)c1C(=O)Oc1c(C)cc(C)cc1C(C)(C)C [Ester 21]
photolysis / photo-release of dicamba, in words [1]: undergo photo-release of dicamba in vitro

COc1cc(COC(=O)c2c(Cl)ccc(Cl)c2OC)c([N+](=O)[O-])cc1OC [Ester 1b, 6-nitroveratryl ester of dicamba]
solubility, in words [2]: significantly less soluble than 1a

COc1c(Cl)ccc(Cl)c1C(=O)OCCOc1ccccc1[N+](=O)[O-] [Ester 3]
% Control of velvetleaf, 140 g/ha (velvetleaf [3]): 36% | % Control of velvetleaf, 280 g/ha (velvetleaf [3]): 57% | % Control of velvetleaf, 420 g/ha (velvetleaf [3]): 40% | % Control of velvetleaf, 560 g/ha (velvetleaf [3]): 43% | photolysis / photo-release of dicamba, in words [1]: the rate of photolysis decreases

COc1c(Cl)ccc(Cl)c1C(=O)Oc1nc(C(C)(C)C)cc(C(C)(C)C)c1C#N [Ester 36a]
control of a number of broadleaf weeds in field testing, in words (broadleaf weeds): proven effective | Conversion to Dicamba, Dark, Day 0 ([4]; amber (dark) bottle): 20% | Conversion to Dicamba, Dark, Day 1 ([4]; amber (dark) bottle): 59% | Conversion to Dicamba, Dark, Day 2 ([4]; amber (dark) bottle): 61% | Conversion to Dicamba, Dark, Day 3 ([4]; amber (dark) bottle): 60% | Conversion to Dicamba, Dark, Day 4 ([4]; amber (dark) bottle): 60% | Conversion to Dicamba, Dark, Day 7 ([4]; amber (dark) bottle): 65% | Conversion to Dicamba, Dark, Day 21 ([4]; amber (dark) bottle): 66% | Conversion to Dicamba, Light, Day 0 ([4]; quartz tube): 20% | Conversion to Dicamba, Light, Day 1 ([4]; quartz tube): 57% | Conversion to Dicamba, Light, Day 2 ([4]; quartz tube): 60% | Conversion to Dicamba, Light, Day 3 ([4]; quartz tube): 58% | Conversion to Dicamba, Light, Day 4 ([4]; quartz tube): 59% | Conversion to Dicamba, Light, Day 7 ([4]; quartz tube): 63% | Conversion to Dicamba, Light, Day 21 ([4]; quartz tube): 65% | % control 19 days after treatment, 280 g/ha, Hemp sesbania (hemp sesbania; [10]): 82 ± 10% | % control 19 days after treatment, 560 g/ha, Hemp sesbania (hemp sesbania; [11]): 98 ± 2% | % control 19 days after treatment, 280 g/ha, Velvetleaf (velvetleaf [5]; [10]): 72 ± 25% | % control 19 days after treatment, 560 g/ha, Velvetleaf (velvetleaf [5]; [11]): 84 ± 26% | % control 19 days after treatment, 280 g/ha, Morning glory (morning glory; [10]): 83 ± 4% | % control 19 days after treatment, 560 g/ha, Morning glory (morning glory; [11]): 93 ± 5% | pest or weed control at 140 g/ha (velvetleaf [6]; 140 g/ha, read-out: % Control of velvetleaf, 140 g/ha): 15.8% | pest or weed control at 280 g/ha (velvetleaf [6]; 280 g/ha, read-out: % Control of velvetleaf, 280 g/ha): 26.7% | pest or weed control at 420 g/ha (velvetleaf [6]; 420 g/ha, read-out: % Control of velvetleaf, 420 g/ha): 32.5% | pest or weed control at 560 g/ha (velvetleaf [6]; 560 g/ha, read-out: % Control of velvetleaf, 560 g/ha): 66.7%

CCCCOc1ccc(C(=O)COC(=O)c2c(Cl)ccc(Cl)c2OC)cc1 [Ester 10, p-n-Butoxyphenacylmethyl Ester of Dicamba]
control of a number of broadleaf weeds in field testing, in words (broadleaf weeds): proven effective | % Control of velvetleaf, 140 g/ha (velvetleaf [7]; 140 g dicamba equivalent per hectare): 23% | % Control of velvetleaf, 280 g/ha (velvetleaf [7]; 280 g dicamba equivalent per hectare): 33% | % Control of velvetleaf, 420 g/ha (velvetleaf [7]; 420 g dicamba equivalent per hectare): 28% | % Control of velvetleaf, 560 g/ha (velvetleaf [7]; 560 g dicamba equivalent per hectare): 33% | Dark Control % dicamba ([8]; no illumination): 8% | Conversion to dicamba, 1 day ([8]; simulated sunlight, 1 day): 17% | Conversion to dicamba, 2 days ([8]; simulated sunlight, 2 days): 19% | Conversion to dicamba, 3 days ([8]; simulated sunlight, 3 days): 20% | Conversion to dicamba, 5 days ([8]; simulated sunlight, 5 days): 24% | Conversion to dicamba, 7 days ([8]; simulated sunlight, 7 days): 28% | Conversion to dicamba, 11 days ([8]; simulated sunlight, 11 days): 32% | Conversion to dicamba, 13 days ([8]; simulated sunlight, 13 days): 31% | Conversion to dicamba, 15 days ([8]; simulated sunlight, 15 days): 32% | Conversion to dicamba, 19 days ([8]; simulated sunlight, 19 days): 33% | Dark Control % dicamba ([9]; initial solution kept away from the light source, analyzed at conclusion of study): 8% | Conversion to dicamba, 1 day ([9]; simulated sunlight 14 hours per day, 35° C., 1 day): 16% | Conversion to dicamba, 2 days ([9]; simulated sunlight 14 hours per day, 35° C., 2 days): 15% | Conversion to dicamba, 3 days ([9]; simulated sunlight 14 hours per day, 35° C., 3 days): 16% | Conversion to dicamba, 5 days ([9]; simulated sunlight 14 hours per day, 35° C., 5 days): 19% | Conversion to dicamba, 7 days ([9]; simulated sunlight 14 hours per day, 35° C., 7 days): 20% | Conversion to dicamba, 9 days ([9]; simulated sunlight 14 hours per day, 35° C., 9 days): 29% | Conversion to dicamba, 12 days ([9]; simulated sunlight 14 hours per day, 35° C., 12 days): 35% | Conversion to dicamba, 15 days ([9]; simulated sunlight 14 hours per day, 35° C., 15 days): 35%

COc1c(Cl)ccc(Cl)c1C(=O)Oc1ccc(=O)n(CCC#N)n1 [Ester 34a]
Conversion to Dicamba, Dark, Day 0 ([4]; amber (dark) bottle): 3% | Conversion to Dicamba, Dark, Day 1 ([4]; amber (dark) bottle): 9% | Conversion to Dicamba, Dark, Day 2 ([4]; amber (dark) bottle): 14% | Conversion to Dicamba, Dark, Day 3 ([4]; amber (dark) bottle): 18% | Conversion to Dicamba, Dark, Day 4 ([4]; amber (dark) bottle): 23% | Conversion to Dicamba, Dark, Day 7 ([4]; amber (dark) bottle): 38% | Conversion to Dicamba, Dark, Day 14 ([4]; amber (dark) bottle, Day 14): 56% | Conversion to Dicamba, Dark, Day 21 ([4]; amber (dark) bottle): 71% | Conversion to Dicamba, Dark, Day 28 ([4]; amber (dark) bottle, Day 28): 87% | Conversion to Dicamba, Light, Day 0 ([4]; quartz tube): 3% | Conversion to Dicamba, Light, Day 1 ([4]; quartz tube): 10% | Conversion to Dicamba, Light, Day 2 ([4]; quartz tube): 14% | Conversion to Dicamba, Light, Day 3 ([4]; quartz tube): 16% | Conversion to Dicamba, Light, Day 4 ([4]; quartz tube): 20% | Conversion to Dicamba, Light, Day 7 ([4]; quartz tube): 29% | Conversion to Dicamba, Light, Day 14 ([4]; quartz tube, Day 14): 48% | Conversion to Dicamba, Light, Day 21 ([4]; quartz tube): 60% | Conversion to Dicamba, Light, Day 28 ([4]; quartz tube, Day 28): 71% | solubility, in words [2]: insoluble solid

COc1c(Cl)ccc(Cl)c1C(=O)OCCOCc1ccccc1[N+](=O)[O-] [Ester 4, 2-(2-Nitrobenzoxy)Ethanol Ester of Dicamba]
% Control of velvetleaf, 140 g/ha (velvetleaf [3]): 32% | % Control of velvetleaf, 280 g/ha (velvetleaf [3]): 52% | % Control of velvetleaf, 420 g/ha (velvetleaf [3]): 50% | % Control of velvetleaf, 560 g/ha (velvetleaf [3]): 51% | photolysis / photo-release of dicamba, in words [1]: the rate of photolysis decreases

COc1c(Cl)ccc(Cl)c1C(=O)OCc1cccc([N+](=O)[O-])c1 [Ester 1c, 3-nitrobenzyl ester of dicamba]
photolysis / photo-release of dicamba, in words [1]: slower and less efficient photolysis than the 2-nitrobenzyl ester
